From BindingDB's records for doi:10.1021/jm800930w (Kyoto University, 2008)

Molecular target: KiSS-1 receptor (Homo sapiens, UniProt Q969F8)
Experiment: Receptor Binding Assay
Conditions: pH 7.3; 25 °C

KiSS-1 receptor, sequence (Q969F8 whole entry): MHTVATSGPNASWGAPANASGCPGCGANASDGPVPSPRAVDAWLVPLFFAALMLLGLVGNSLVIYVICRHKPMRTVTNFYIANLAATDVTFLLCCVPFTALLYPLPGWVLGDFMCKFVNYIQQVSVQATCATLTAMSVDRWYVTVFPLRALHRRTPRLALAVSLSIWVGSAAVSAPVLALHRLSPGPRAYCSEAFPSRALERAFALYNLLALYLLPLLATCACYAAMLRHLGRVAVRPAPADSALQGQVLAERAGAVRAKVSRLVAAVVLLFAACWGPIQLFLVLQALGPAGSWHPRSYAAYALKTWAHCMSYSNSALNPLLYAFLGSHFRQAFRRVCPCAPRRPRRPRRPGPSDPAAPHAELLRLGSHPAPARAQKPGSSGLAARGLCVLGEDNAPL

IC50: 0.12 nM
Structure (SMILES): CC(C)C[C@H](NC(=O)CNC(=O)[C@H](Cc1ccccc1)NC(=O)[C@H](CO)NC(=O)[C@H](CC(N)=O)NC(=O)[C@H](Cc1c[nH]c2ccccc12)NC(=O)[C@H](CC(N)=O)NC(=O)[C@@H](N)Cc1ccc(O)cc1)C(=O)N[C@@H](CCCNC(=N)N)C(=O)N[C@@H](Cc1ccccc1)C(N)=O [(2S)-2-[(2S)-2-[(2S)-2-[(2S)-2-amino-3-(4-hydroxyphenyl)propanamido]butanediamido]-3-(1H-indol-3-yl)propanamido]-N-[(1S)-1-{[(1S)-1-[({[(1S)-1-{[(1S)-4-carbamimidamido-1-{[(1S)-1-carbamoyl-2-phenylethyl]carbamoyl}butyl]carbamoyl}-3-methylbutyl]carbamoyl}methyl)carbamoyl]-2-phenylethyl]carbamoyl}-2-hydroxyethyl]butanediamide]
